Results from publication PMC5780470, “Copper(I)-binding properties of de-coppering drugs for the treatment of Wilson disease. α-Lipoic acid as a potential anti-copper agent” (Scientific Reports, 2018).

Target: MT2A (MT2, Cu10MT, Cu10MT2) (Oryctolagus cuniculus, UniProt P18055)
Assay: ESI-MS demetallation of Cu10MT, Hill fit
Type: binding
Conditions: C50 for Cu(I) extraction from 3 uM Cu10MT, not a protein affinity; 10 mM DTT, 20 mM ammonium acetate, pH 7.3, 25 °C; all CuMT-TTM complexes counted; no ternary complexes stated; read-out: C50 (mM) for Cu1Cox17
Text: ESI-MS demetallation of Cu10MT, Hill fit on MT2A (MT2, Cu10MT, Cu10MT2)

Chain of MT2A (MT2, Cu10MT, Cu10MT2) (P18055 whole entry): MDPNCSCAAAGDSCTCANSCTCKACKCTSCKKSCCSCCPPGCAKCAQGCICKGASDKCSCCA

IC50: 0.772 ± 0.087 mM
SMILES: CCN(CC)C(=S)S [DETC, diethyl dithiocarbamate]
